Measurements taken from paper PMC5788402, “Impact of Target Warhead and Linkage Vector on Inducing Protein Degradation: Comparison of Bromodomain and Extra-Terminal (BET) Degraders Derived from Triazolodiazepine (JQ1) and Tetrahydroquinoline (I-BET726) BET Inhibitor Scaffolds” (Journal of Medicinal Chemistry, 2017).

Assays:
[1] = target: VHL-EloC-EloB protein (VCB) (Homo sapiens, UniProt P40337); assay: ITC binary titration, VCB into PROTAC; format: binding; conditions: VCB in syringe, PROTAC in cell
Brd4^BD2 = Brd4^BD2 (Homo sapiens, UniProt O60885); assay: ITC binary titration, Brd4^BD2 into PROTAC; format: binding; conditions: Brd4^BD2 in syringe, PROTAC in cell
[2] = target: VCB / Brd4^BD2 ternary complex (Homo sapiens, UniProt O60885+P40337); assay: ITC ternary titration, VCB into Brd4^BD2–PROTAC complex; format: binding; conditions: for α: cooperativity, ratio between binary and ternary Kd; for α / ΔpKd ± uncertainty: Brd4^BD2; for cooperativity (α) Brd4–BD2: ternary complex formation with VCB and Brd4^BD2, as tabulated in Table 2; for ΔpKd ± uncertainty: ternary vs binary; for stoichiometry N / ΔG / ΔH / –TΔS: ternary, VCB in syringe, Brd4^BD2–PROTAC in cell
[3] = tested on: BET proteins Brd2, Brd3, Brd4; assay: BET degradation profile in HeLa cells; format: cell-based; conditions: 24 h

SMILES | stoichiometry N [1] | ΔG [1] | ΔH [1] | –TΔS [1] | stoichiometry N (Brd4^BD2) | ΔG (Brd4^BD2) | ΔH (Brd4^BD2) | α [2] | cooperativity (α) Brd4–BD2 [2] | ΔpKd ± uncertainty [2] | stoichiometry N [2] | ΔG [2] | ΔH [2] | –TΔS [2] | concentration with increased levels of BET proteins (hook effect) [3] | –TΔS (Brd4^BD2)
Cc1ncsc1-c1ccc(CNC(=O)[C@@H]2C[C@@H](O)CN2C(=O)[C@@H](NC(=O)COCCOCCNC(=O)C[C@@H]2N=C(c3ccc(Cl)cc3)c3c(sc(C)c3C)-n3c(C)nnc32)C(C)(C)C)cc1 [compound 5, (2S,4R)-1-((S)-2-(tert-Butyl)-14-((S)-4-(4-chlorophenyl)-2,3,9-trimethyl-6H-thieno[3,2-f][1,2,4]triazolo[4,3-a][1,4]diazepin-6-yl)-4,13-dioxo-6,9-dioxa-3,12-diazatetradecanoyl)-4-hydroxy-N-(4-(4-methylthiazol-5-yl)benzyl)pyrrolidine-2-carboxamide] | 0.8 ± 0.05 | –9.34 ± 0.10 kcal·mol^–1 | –5.72 ± 0.47 kcal·mol^–1 | –3.61 ± 0.37 kcal·mol^–1 | 0.81 ± 0.04 | –10.6 ± 0.06 kcal·mol^–1 | –11.2 ± 0.04 kcal·mol^–1 | 5.7 | 5.7 | 0.78 ± 0.16 | 0.76 ± 0.06 | –10.4 ± 0.2 kcal·mol^–1 | –5.36 ± 0.77 kcal·mol^–1 | –5.05 ± 0.62 kcal·mol^–1 | – | –
CC(=O)N1c2ccc(-c3ccc(C(=O)NCCOCCOCCOCC(=O)N[C@H](C(=O)N4C[C@H](O)C[C@H]4C(=O)NCc4ccc(-c5scnc5C)cc4)C(C)(C)C)cc3)cc2[C@H](Nc2ccc(Cl)cc2)C[C@@H]1C [compound 9, (2S,4R)-1-((S)-1-(4-((2S,4R)-1-Acetyl-4-((4-chlorophenyl)amino)-2-methyl-1,2,3,4-tetrahydroquinolin-6-yl)phenyl)-15-(tert-butyl)-1,13-dioxo-5,8,11-trioxa-2,14-diazahexadecan-16-oyl)-4-hydroxy-N-(4-(4-methylthiazol-5-yl)benzyl)pyrrolidine-2-carboxamide] | 0.96 ± 0.01 | –9.52 ± 0.13 kcal·mol^–1 | –6.18 ± 0.12 kcal·mol^–1 | –3.34 ± 0.18 kcal·mol^–1 | 1.15 ± 0.01 | –11.5 ± 0.3 kcal·mol^–1 | –9.74 ± 0.10 kcal·mol^–1 | 0.5 | 0.46 | –0.34 ± 0.12 | 1.44 ± 0.02 | –9.06 ± 0.09 kcal·mol^–1 | –6.90 ± 0.11 kcal·mol^–1 | –2.16 ± 0.14 kcal·mol^–1 | 1 to 10 µM | –1.73 ± 0.30 kcal·mol^–1
